Read-outs that look alike come from different tables or passages of the source.
How the values were obtained:
tumor = assay: Ascending dose trial in dogs (MTD); assay type: in vivo; conditions: for maximum tolerated dose: dogs
Excerpt: The maximum tolerated dose is 1.75-2.0 mCi/kg; whereas for Sm-153-EDTMP the maximum tolerated dose was 1.0 mCi/kg. Stable or improved indices were experienced by 7 of 12 dogs.

osteosarcoma = assay: Treatment of dogs with osteosarcoma with LSA Sm-153-DOTMP; assay type: in vivo
Method: Seven dogs with osteosarcoma were treated with the Sm-153-DOTMP made from LSA Sm-153 of Example 1 at 1 mCi/kg.

[1] = Residual activity in bone cancer patients after repeated doses, NaI crystal detection; assay type: in vivo; conditions: 30 mCi doses, after receiving 7 doses (of 10); activity due to long-lived radionuclidic impurities
Excerpt: The Sm-153 prepared as in Example A was used to prepare doses of Sm-153-EDTMP. These doses were used to treat patients suffering from bone cancer. Patients were repeatedly treated (10 times) with 30 mCi of Sm-153-EDTMP as prepared in this example. The first 5 doses were given at 3 month intervals, and the second five doses given at 6 month intervals. After the decay of Sm-153, a NaI crystal was used to detect the amount of residual activity in the patients. […] The activity was due to long-lived radionuclidic impurities created during the target irradiation process.

[2] = test system: prostate and breast bone metastases; conditions: cited from earlier work; for long-lived impurities (Eu isotopes) in patients on multiple doses: high-resolution gamma spectroscopy whole body counters
[3] = about 550 patients, repeated 30 mCi doses

Sm-153 1,4,7,10-tetraazacyclododecanetetramethylenephosphonic acid [LSA Sm-153-DOTMP]
stable or improved indices (tumor; ascending dose trial): 7 of 12
uptake in tumor (tumor; ascending dose trial of 13 dogs starting at 1.5 mCi/kg): uptake in tumor for all seven dogs tested
maximum tolerated dose (tumor): 1.75-2.0 mCi/kg
myelosuppression relative to similar dogs treated with 1 mCi/kg of HSA Sm-153-EDTMP (osteosarcoma; evidenced from the nadir in platelets and neutrophils): about one half
uptake in the tumor (osteosarcoma; seven dogs with osteosarcoma, 1 mCi/kg): uptake in the tumor for all dogs

Sm-153-ethylenediaminetetramethylenephosphonic acid [Sm-153-EDTMP]
maximum tolerated dose (tumor): 1.0 mCi/kg
residual activity detected in patients after decay of Sm-153 [1]: significant amounts of activity detected in patients, which increased with each dose given thereafter
lesion response [2, 3]: lesion regression
survival [2, 3]: improved survival
long-lived impurities (Eu isotopes) in patients on multiple doses [2]: increases with every treatment
long-lived impurities (Eu isotopes) in patients on multiple doses ([2]; listed as HSA Sm-153-EDTMP): apparent

From patent US11813339B2, “Method of use for therapeutic bone agents” (IGL Pharma, Inc., priority 2017, dated 2023)
